According to PubChem BioAssay AID256 (DTP/NCI, 2004):
Several values for one entry are separate records, joined by “and”; a condition that tells them apart may be missing. Identical values can stand only once. Toxic doses and inconclusive results are not listed.

System: CD2F1 mice, L1210 leukemia ip, survival T/C
Experiment: NCI In Vivo Anticancer Drug Screen. Data for tumor model L1210 Leukemia (intraperitoneal) in CD2F1 (CDF1) mice
Conditions: higher = longer survival
In short: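 Antitumor effect is scored in animals hosting a serially transplanted tumor. Values compare compound-dosed animals against vehicle-only controls as a simple quotient.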

In the case of `NCCCN=c1ccc2c3c1c(O)c1c(O)ccc(=O)c1c3[nH]n2CCNCCO`, the T/C (endpoint: median survival time, dose: 0.28 mg/kg/injection, schedule: Q03HX008 (ip), vehicle: saline) is reported as 162 % of control, the T/C (endpoint: median survival time, dose: 0.38 mg/kg/injection, schedule: Q03HX024 (ip), vehicle: saline) is reported as 174 % of control and the T/C (endpoint: median survival time, dose: 0.45 mg/kg/injection, schedule: Q01DX005 (ip), vehicle: saline) is reported as 174 % of control. For the same compound, the T/C (endpoint: median survival time, dose: 0.5 mg/kg/injection, schedule: Q01DX009 (ip), vehicle: saline) was 241 % of control, the T/C (endpoint: median survival time, dose: 0.56 mg/kg/injection, schedule: Q03HX008 (ip), vehicle: saline) was 174 % of control and the T/C (endpoint: median survival time, dose: 0.75 mg/kg/injection, schedule: Q03HX024 (ip), vehicle: saline) was 329 % of control. For the same compound, the T/C (endpoint: median survival time, dose: 0.75 mg/kg/injection, schedule: Q04DX003 (ip), vehicle: saline) was 231 % of control, the T/C (endpoint: median survival time, dose: 0.9 mg/kg/injection, schedule: Q01DX005 (ip), vehicle: saline) was 198 % of control and the T/C (endpoint: median survival time, dose: 0.9 mg/kg/injection, schedule: Q01DX005 (iv), vehicle: saline) was 114 % of control. The T/C (endpoint: median survival time, dose: 1.0 mg/kg/injection, schedule: Q01DX009 (ip), vehicle: saline) was 217 % of control, the T/C (endpoint: median survival time, dose: 1.13 mg/kg/injection, schedule: Q03HX008 (ip), vehicle: saline) was 731 % of control and the T/C (endpoint: median survival time, dose: 1.5 mg/kg/injection, schedule: Q03HX024 (ip), vehicle: saline) was 731 % of control. For the same compound, the T/C (endpoint: median survival time, dose: 1.5 mg/kg/injection, schedule: Q04DX003 (ip), vehicle: saline) was 186 % of control, the T/C (endpoint: median survival time, dose: 1.8 mg/kg/injection, schedule: Q01DX005 (ip), vehicle: saline) was 219 % of control and the T/C (endpoint: median survival time, dose: 2.0 mg/kg/injection, schedule: Q01DX009 (ip), vehicle: saline) was 186 % of control. The T/C (endpoint: median survival time, dose: 2.0 mg/kg/injection, schedule: Q01DX009 (ip), vehicle: water) was 170 % of control and 365 % of control, the T/C (endpoint: median survival time, dose: 2.2 mg/kg/injection, schedule: Q01DX001 (iv), vehicle: water) was 103 % of control and 111 % of control and the T/C (endpoint: median survival time, dose: 2.25 mg/kg/injection, schedule: Q01DX001 (iv), vehicle: saline) was 117 % of control. The T/C (endpoint: median survival time, dose: 2.25 mg/kg/injection, schedule: Q03HX008 (ip), vehicle: saline) was 280 % of control, the T/C (endpoint: median survival time, dose: 3.0 mg/kg/injection, schedule: Q03HX024 (ip), vehicle: saline) was 731 % of control and the T/C (endpoint: median survival time, dose: 3.0 mg/kg/injection, schedule: Q04DX003 (ip), vehicle: saline) was 207 % of control. The T/C (endpoint: median survival time, dose: 3.6 mg/kg/injection, schedule: Q01DX005 (ip), vehicle: saline) was 426 % of control, the T/C (endpoint: median survival time, dose: 3.6 mg/kg/injection, schedule: Q01DX005 (iv), vehicle: saline) was 158 % of control and the T/C (endpoint: median survival time, dose: 4.0 mg/kg/injection, schedule: Q01DX009 (ip), vehicle: saline) was 219 % of control. For the same compound, the T/C (endpoint: median survival time, dose: 4.0 mg/kg/injection, schedule: Q01DX009 (ip), vehicle: water) was 183 % of control and 192 % of control and 292 % of control, the T/C (endpoint: median survival time, dose: 4.5 mg/kg/injection, schedule: Q01DX001 (ip), vehicle: saline) was 207 % of control and the T/C (endpoint: median survival time, dose: 4.5 mg/kg/injection, schedule: Q01DX001 (ip), vehicle: water) was 164 % of control. For the same compound, the T/C (endpoint: median survival time, dose: 4.5 mg/kg/injection, schedule: Q01DX001 (iv), vehicle: saline) was 123 % of control, the T/C (endpoint: median survival time, dose: 4.5 mg/kg/injection, schedule: Q01DX001 (iv), vehicle: water) was 108 % of control and 112 % of control and the T/C (endpoint: median survival time, dose: 4.5 mg/kg/injection, schedule: Q03HX008 (ip), vehicle: saline) was 731 % of control. The T/C (endpoint: median survival time, dose: 6.0 mg/kg/injection, schedule: Q03HX024 (ip), vehicle: saline) was 731 % of control, the T/C (endpoint: median survival time, dose: 6.0 mg/kg/injection, schedule: Q04DX003 (ip), vehicle: saline) was 243 % of control and the T/C (endpoint: median survival time, dose: 7.2 mg/kg/injection, schedule: Q01DX005 (ip), vehicle: saline) was 731 % of control. For the same compound, the T/C (endpoint: median survival time, dose: 7.2 mg/kg/injection, schedule: Q01DX005 (iv), vehicle: saline) was 187 % of control, the T/C (endpoint: median survival time, dose: 8.0 mg/kg/injection, schedule: Q01DX009 (ip), vehicle: saline) was 329 % of control and the T/C (endpoint: median survival time, dose: 8.0 mg/kg/injection, schedule: Q01DX009 (ip), vehicle: water) was 213 % of control and 268 % of control and 333 % of control. For the same compound, the T/C (endpoint: median survival time, dose: 8.0 mg/kg/injection, schedule: Q01DX009 (oral), vehicle: saline) was 104 % of control, the T/C (endpoint: median survival time, dose: 9.0 mg/kg/injection, schedule: Q01DX001 (ip), vehicle: saline) was 231 % of control and the T/C (endpoint: median survival time, dose: 9.0 mg/kg/injection, schedule: Q01DX001 (ip), vehicle: water) was 158 % of control and 183 % of control. The T/C (endpoint: median survival time, dose: 9.0 mg/kg/injection, schedule: Q03HX008 (ip), vehicle: saline) was 731 % of control, the T/C (endpoint: median survival time, dose: 12.0 mg/kg/injection, schedule: Q03HX024 (ip), vehicle: saline) was 107 % of control and the T/C (endpoint: median survival time, dose: 12.0 mg/kg/injection, schedule: Q04DX003 (ip), vehicle: saline) was 731 % of control. The T/C (endpoint: median survival time, dose: 14.4 mg/kg/injection, schedule: Q01DX005 (ip), vehicle: saline) was 731 % of control, the T/C (endpoint: median survival time, dose: 16.0 mg/kg/injection, schedule: Q01DX009 (ip), vehicle: saline) was 280 % of control and the T/C (endpoint: median survival time, dose: 16.0 mg/kg/injection, schedule: Q01DX009 (ip), vehicle: water) was 196 % of control and 337 % of control and 365 % of control. The T/C (endpoint: median survival time, dose: 16.0 mg/kg/injection, schedule: Q01DX009 (oral), vehicle: saline) was 101 % of control, the T/C (endpoint: median survival time, dose: 18.0 mg/kg/injection, schedule: Q01DX001 (ip), vehicle: saline) was 268 % of control and the T/C (endpoint: median survival time, dose: 18.0 mg/kg/injection, schedule: Q01DX001 (ip), vehicle: water) was 216 % of control and 666 % of control. The T/C (endpoint: median survival time, dose: 18.0 mg/kg/injection, schedule: Q01DX001 (iv), vehicle: saline) was 162 % of control, the T/C (endpoint: median survival time, dose: 18.0 mg/kg/injection, schedule: Q03HX008 (ip), vehicle: saline) was 365 % of control and the T/C (endpoint: median survival time, dose: 24.0 mg/kg/injection, schedule: Q04DX003 (ip), vehicle: saline) was 731 % of control. For the same compound, the T/C (endpoint: median survival time, dose: 28.8 mg/kg/injection, schedule: Q01DX005 (ip), vehicle: saline) was 731 % of control, the T/C (endpoint: median survival time, dose: 28.8 mg/kg/injection, schedule: Q01DX005 (iv), vehicle: saline) was 104 % of control and the T/C (endpoint: median survival time, dose: 32.0 mg/kg/injection, schedule: Q01DX009 (ip), vehicle: saline) was 113 % of control. For the same compound, the T/C (endpoint: median survival time, dose: 32.0 mg/kg/injection, schedule: Q01DX009 (ip), vehicle: water) was 114 % of control and 119 % of control and 88 % of control, the T/C (endpoint: median survival time, dose: 32.0 mg/kg/injection, schedule: Q01DX009 (oral), vehicle: saline) was 107 % of control and the T/C (endpoint: median survival time, dose: 36.0 mg/kg/injection, schedule: Q01DX001 (ip), vehicle: saline) was 731 % of control. For the same compound, the T/C (endpoint: median survival time, dose: 36.0 mg/kg/injection, schedule: Q01DX001 (ip), vehicle: water) was 208 % of control and 466 % of control, the T/C (endpoint: median survival time, dose: 36.0 mg/kg/injection, schedule: Q01DX001 (iv), vehicle: saline) was 192 % of control and the T/C (endpoint: median survival time, dose: 36.0 mg/kg/injection, schedule: Q01DX001 (iv), vehicle: water) was 152 % of control. The T/C (endpoint: median survival time, dose: 48.0 mg/kg/injection, schedule: Q04DX003 (ip), vehicle: saline) was 731 % of control, the T/C (endpoint: median survival time, dose: 64.0 mg/kg/injection, schedule: Q01DX009 (ip), vehicle: saline) was 90 % of control and the T/C (endpoint: median survival time, dose: 64.0 mg/kg/injection, schedule: Q01DX009 (oral), vehicle: saline) was 101 % of control. For the same compound, the T/C (endpoint: median survival time, dose: 72.0 mg/kg/injection, schedule: Q01DX001 (ip), vehicle: saline) was 731 % of control, the T/C (endpoint: median survival time, dose: 72.0 mg/kg/injection, schedule: Q01DX001 (ip), vehicle: water) was 666 % of control and the T/C (endpoint: median survival time, dose: 96.0 mg/kg/injection, schedule: Q04DX003 (ip), vehicle: saline) was 219 % of control. For the same compound, the T/C (endpoint: median survival time, dose: 128.0 mg/kg/injection, schedule: Q01DX009 (oral), vehicle: saline) was 102 % of control, the T/C (endpoint: median survival time, dose: 144.0 mg/kg/injection, schedule: Q01DX001 (ip), vehicle: saline) was 731 % of control and the T/C (endpoint: median survival time, dose: 144.0 mg/kg/injection, schedule: Q01DX001 (ip), vehicle: water) was 666 % of control.

`CSc1nc(NC2OCC(O)C(O)C2O)cc(=O)n1C` (centres undefined) was tested, and the T/C (endpoint: median survival time, dose: 12.5 mg/kg/injection, schedule: Q01DX005 (ip), vehicle: saline) was 98 % of control, the T/C (endpoint: median survival time, dose: 25.0 mg/kg/injection, schedule: Q01DX005 (ip), vehicle: saline) was 102 % of control and the T/C (endpoint: median survival time, dose: 50.0 mg/kg/injection, schedule: Q01DX005 (ip), vehicle: saline) was 102 % of control. The T/C (endpoint: median survival time, dose: 100.0 mg/kg/injection, schedule: Q01DX005 (ip), vehicle: saline) was 105 % of control and the T/C (endpoint: median survival time, dose: 200.0 mg/kg/injection, schedule: Q01DX005 (ip), vehicle: saline) was 100 % of control.

`O=c1nc(NCCc2c[nH]c3ccccc23)ccn1C1OC(CO)C(O)C1O` (centres undefined) was tested, and the T/C (endpoint: median survival time, dose: 12.5 mg/kg/injection, schedule: Q01DX005 (ip), vehicle: distilled water + Tween-80) was 101 % of control, the T/C (endpoint: median survival time, dose: 25.0 mg/kg/injection, schedule: Q01DX005 (ip), vehicle: distilled water + Tween-80) was 100 % of control and the T/C (endpoint: median survival time, dose: 50.0 mg/kg/injection, schedule: Q01DX005 (ip), vehicle: distilled water + Tween-80) was 98 % of control. For the same compound, the T/C (endpoint: median survival time, dose: 100.0 mg/kg/injection, schedule: Q01DX005 (ip), vehicle: distilled water + Tween-80) was 98 % of control and the T/C (endpoint: median survival time, dose: 200.0 mg/kg/injection, schedule: Q01DX005 (ip), vehicle: distilled water + Tween-80) was 98 % of control.

With `CC(C)c1cc(C(C)C)n2nc(N)nc2n1` the T/C (endpoint: mean survival time, dose: 100.0 mg/kg/injection, schedule: Q04DX003 (ip), vehicle: saline with Tween-80) was 106 % of control, the T/C (endpoint: mean survival time, dose: 200.0 mg/kg/injection, schedule: Q04DX003 (ip), vehicle: saline with Tween-80) was 98 % of control and the T/C (endpoint: mean survival time, dose: 400.0 mg/kg/injection, schedule: Q04DX003 (ip), vehicle: saline with Tween-80) was 97 % of control.

For `CCCCC(=O)C(=O)OC(OC(=O)C(=O)CCCC)c1ccccc1`, the T/C (endpoint: mean survival time, dose: 75.0 mg/kg/injection, schedule: Q01DX001 (ip), vehicle: saline) was 93 % of control and the T/C (endpoint: mean survival time, dose: 150.0 mg/kg/injection, schedule: Q01DX001 (ip), vehicle: saline) was 97 % of control.
